Test results taken from US20260217704A1, “INDOLONE DERIVATIVE HAVING IRAK4 INHIBITORY ACTIVITY, AND PREPARATION METHOD THEREFOR AND USE THEREOF” (DOVETREE MEDICINES UNUS, INC., priority 2023, published 2026).

Target: T1, IRAK4 kinase protein (Homo sapiens, UniProt Q9NWZ3)
T1 sequence (Q9NWZ3 1-460): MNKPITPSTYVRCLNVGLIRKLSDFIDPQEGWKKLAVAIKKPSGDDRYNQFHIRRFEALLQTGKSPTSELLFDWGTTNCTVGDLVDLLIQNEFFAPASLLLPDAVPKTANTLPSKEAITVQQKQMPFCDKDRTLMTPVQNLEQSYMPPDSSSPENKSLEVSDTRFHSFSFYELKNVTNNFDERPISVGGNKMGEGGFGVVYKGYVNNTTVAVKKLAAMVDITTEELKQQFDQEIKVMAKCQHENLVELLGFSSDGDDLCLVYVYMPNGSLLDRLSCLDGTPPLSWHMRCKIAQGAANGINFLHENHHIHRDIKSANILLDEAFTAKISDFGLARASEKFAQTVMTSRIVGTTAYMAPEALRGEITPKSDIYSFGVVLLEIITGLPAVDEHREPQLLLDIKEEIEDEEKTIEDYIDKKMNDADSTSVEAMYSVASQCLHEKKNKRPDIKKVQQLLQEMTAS
Assay: IRAK4 kinase inhibition assay (Cisbio HTRF KinEASE-STK S1 kit)
Type: biochemical
Conditions: IRAK4 10 nM, ATP 200 μM, 37° C. 2 hours, read-out: IRAK4 inhibitory activity IC50
Experimental: Cisbio HTRF KinEASE-STK SI kit (62S1PEB) was used in this experiment. The experiment/detection buffer, STK Substrate 1-biotin, Streptavidin-XL665, and STK Antibody-Crypatete were all contained in the kit.
The compound/DMSO was added to a 384 plate (PerkinElmer 6008280) using Echo 665. Subsequently, 5 μL of IRAK4 kinase protein dissolved in an experimental buffer [1 volume of 5×kinase buffer+20 mM magnesium chloride (Sigma) solution+1 mM DTT (Alfa Aesar) solution+4 volumes of deionized water] at 2 folds reaction concentration was added (final concentration: 10 nM). The shallow well plate was sealed, shaken, and then centrifuged at 1000 rpm for 1 minute and incubated at room temperature for 5 minutes. 5 μL of a 1:1 mixture of STK Substrate 1-biotin (final concentration: 1 μM) and ATP (Sigma A1852) (final concentration: 200 μM) at 2 folds reaction concentration prepared with the experimental buffer was then added. The shallow well plate was sealed, shaken, then centrifuged at 1000 rpm for 1 minute, and incubated at 37° C. for 2 hours. Subsequently, 10 μL of a 1:1 mixed solution of Streptavidin-XL665 (final concentration: 62.5 nM) and STK-antibody-cryptate dissolved with the detection buffer was added. The shallow well plate was sealed, shaken, then centrifuged at 1000 rpm for 1 minute, and incubated at room temperature for 1 hour. Subsequently, numerical values were read at the wavelength of 620 nm/665 nm by a microplate reader. The data were analyzed by Prism 9.3 software, and the IC50 value of IRAK4 kinase inhibition was fitted by four-parameter Logistic equation. After detection, the compound of the present disclosure has a better IRAK4 kinase inhibitory activity.

Row | Compound | IC50 [nM]
1 | Cc1ccc(/C=C2/C(=O)Nc3ccc(S(=O)(=O)Nc4ccc(F)cc4)cc32)o1 [Compound 1] | > 1000
2 | O=C1Nc2ccc(S(=O)(=O)Nc3ccc(F)cc3)cc2/C1=C/c1cn(C2CCCCC2)nc1C(F)F [Compound 2] | 100 to 500
3 | CCNS(=O)(=O)c1ccc2c(c1)/C(=C\c1cc3cc(N4CCNCC4)ccc3o1)C(=O)N2 [Compound 4] | 100 to 500
4 | O=C1Nc2ccc(S(=O)(=O)Nc3ccc(F)cc3)cc2/C1=C/Nc1cn(C2CCCCC2)nc1C(F)F [Compound 5] | < 100
5 | O=C1Nc2ccc(S(=O)(=O)Nc3ccc(F)cc3)cc2/C1=C/Nc1cnn2cc(N3CCNCC3)ccc12 [Compound 6] | 500 to 1000

The next lines start with the values.

Row | IC50 [nM] | Compound
6 | < 100 | O=C1Nc2ccc(S(=O)(=O)Nc3ccc(F)cc3)cc2/C1=C\c1cc2cc(N3CCNCC3)ccc2o1 [Compound 3]
7 | < 100 | O=C1Nc2ccc(S(=O)(=O)Nc3ccc(F)cc3)cc2/C1=C/c1cc2ccc(N3CCNCC3)cc2[nH]1 [Compound 7]
8 | < 100 | Cc1c(/C=C2\C(=O)Nc3ccc(S(=O)(=O)Nc4ccc(F)cc4)cc32)[nH]c2cc(N3CCNCC3)ccc12 [Compound 8]
